# Experimental data: US6093732A, “4-hydroxyquinoline-3-carboxamides and hydrazides as antiviral agents” (Pharmacia & Upjohn Company, priority 1998, dated 2000)
# Molecular target: T1, HCMV polymerase (Human cytomegalovirus, UniProt P08546)
# T1 construct: made in house; host or cells: recombinant baculovirus-infected SF-9 cells
# Test: HCMV polymerase scintillation proximity assay (SPA), modified version
# Type: biochemical
# Settings: CMV polymerase; Table 1; modified assay with 4.5 mM DTT, compounds in 100% DMSO; read-out: Antiviral Selective Polymerase IC50 Values, CMV
# Method in brief: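 Recombinant polymerase (baculovirus/SF-9) in 5.4 mM HEPES pH 7.5, 11.7 mM KCl, 4.5 mM MgCl2, 0.36 mg/ml BSA, 90 nM 3H-dTTP, ±2 mM CHAPS; started with 6 nM biotinylated poly(dA)-oligo(dT), 25° C or 37° C, EDTA-stopped in linear range (30 min for HCMV). Streptavidin-SPA read; IC50 by linear regression. Modified version: 100% DMSO compound dilution, 4.5 mM DTT added.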
# T1 sequence (P08546 whole entry): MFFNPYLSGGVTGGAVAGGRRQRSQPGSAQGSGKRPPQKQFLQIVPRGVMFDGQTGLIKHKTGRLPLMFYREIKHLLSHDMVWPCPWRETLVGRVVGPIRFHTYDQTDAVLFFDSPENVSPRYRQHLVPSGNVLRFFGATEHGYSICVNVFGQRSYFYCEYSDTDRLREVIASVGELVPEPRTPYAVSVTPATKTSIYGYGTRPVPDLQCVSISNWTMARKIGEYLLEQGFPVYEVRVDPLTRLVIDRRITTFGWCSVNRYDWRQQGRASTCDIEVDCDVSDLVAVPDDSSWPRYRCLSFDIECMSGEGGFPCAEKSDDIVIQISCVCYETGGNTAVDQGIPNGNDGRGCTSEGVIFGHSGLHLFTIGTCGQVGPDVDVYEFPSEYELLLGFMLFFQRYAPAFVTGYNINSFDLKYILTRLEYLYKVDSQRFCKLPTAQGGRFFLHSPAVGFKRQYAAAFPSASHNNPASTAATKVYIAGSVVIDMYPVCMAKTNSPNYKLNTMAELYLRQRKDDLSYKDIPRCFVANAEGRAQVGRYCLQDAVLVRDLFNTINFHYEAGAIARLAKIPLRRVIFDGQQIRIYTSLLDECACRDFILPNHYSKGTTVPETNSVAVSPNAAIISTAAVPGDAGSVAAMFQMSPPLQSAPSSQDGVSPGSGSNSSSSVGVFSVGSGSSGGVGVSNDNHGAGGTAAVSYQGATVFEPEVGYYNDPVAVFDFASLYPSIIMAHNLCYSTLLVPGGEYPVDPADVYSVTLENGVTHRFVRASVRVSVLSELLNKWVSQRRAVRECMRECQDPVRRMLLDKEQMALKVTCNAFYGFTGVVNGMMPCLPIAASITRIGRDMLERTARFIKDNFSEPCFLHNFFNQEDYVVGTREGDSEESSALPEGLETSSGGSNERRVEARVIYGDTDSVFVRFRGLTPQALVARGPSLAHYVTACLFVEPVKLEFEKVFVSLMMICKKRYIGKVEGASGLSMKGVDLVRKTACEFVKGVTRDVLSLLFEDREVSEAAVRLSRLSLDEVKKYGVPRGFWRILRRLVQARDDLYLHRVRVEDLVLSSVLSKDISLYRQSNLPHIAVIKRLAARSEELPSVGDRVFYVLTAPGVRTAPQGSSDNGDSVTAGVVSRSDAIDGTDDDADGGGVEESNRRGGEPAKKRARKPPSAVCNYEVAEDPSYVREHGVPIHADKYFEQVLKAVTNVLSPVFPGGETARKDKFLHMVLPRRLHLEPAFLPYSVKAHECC
row,SMILES,IC50
1,"O=C(NCc1ccc(Cl)cc1)c1cnc2c(F)cc(S(=O)(=O)NCCO)cc2c1O [Example 197, N-(4-Chlorobenzyl)-8-fluoro-4-hydroxy-6-{[(2-hydroxyethyl)amino]-sulfonyl}-3-quinolinecarboxamide]",19.6 µM
2,"O=C(NCc1ccc(Cl)cc1)c1cnc2c(F)cc(S(=O)(=O)N3CCOCC3)cc2c1O [Example 198, N-(4-Chlorobenzyl)-8-fluoro-4-hydroxy-6-(4-morpholinylsulfonyl)-3-quinolinecarboxamide]",21 µM
3,"O=C(NCc1ccc(Cl)cc1)c1cnc2c(F)cc(S(=O)(=O)NCc3ccccn3)cc2c1O [Example 199, N-(4-Chlorobenzyl)-8-fluoro-4-hydroxy-6-{[(2-pyridinylmethyl)amino]-sulfonyl}-3-quinolinecarboxamide]",26.4 µM
4,"O=C(NCc1ccc(Cl)cc1)c1cnc2c(F)cc(S(=O)(=O)Nc3ccccn3)cc2c1O [Example 200, N-(4-Chlorobenzyl)-8-fluoro-4-hydroxy-6-[(2-pyridinylamino)-sulfonyl]-3-quinolinecarboxamide]",38.8 µM
5,"O=C(NCc1ccc(Cl)cc1)c1cnc2c(F)cc(S(=O)(=O)NCC3CCCCC3)cc2c1O [Example 201, N-(4-chlorobenzyl)-6-{[(cyclohexylmethyl)amino]sulfonyl}-8-fluoro-4-hydroxy-3-quinolinecarboxamide]",6 µM
6,"CN1CCCC1CCNS(=O)(=O)c1cc(F)c2ncc(C(=O)NCc3ccc(Cl)cc3)c(O)c2c1 (stereo not drawn) [Example 202, N-(4-chlorobenzyl)-8-fluoro-4-hydroxy-6-({[2-(1-methyl-2-pyrrolidinyl)ethyl]amino}sulfonyl)-3-quinolinecarboxamide]",≥ 50 µM
7,"O=C(NCc1ccc(Cl)cc1)c1cnc2c(F)cc(S(=O)(=O)NCCN3CCCC3)cc2c1O [Example 203, N-(4-chlorobenzyl)-8-fluoro-4-hydroxy-6-({[2-(1-pyrrolidinyl)ethyl]amino}sulfonyl)-3-quinolinecarboxamide]",38.8 µM
8,"O=C(NCc1ccc(Cl)cc1)c1cnc2c(F)cc(S(=O)(=O)NCc3ccco3)cc2c1O [Example 204, N-(4-chlorobenzyl)-8-fluoro-6-{[(2-furylmethyl)amino]sulfonyl}-4-hydroxy-3-quinolinecarboxamide]",13.8 µM
9,"O=C(NCc1ccc(Cl)cc1)c1cnc2c(F)cc(S(=O)(=O)NCCCNC3CCCCC3)cc2c1O [Example 205, N-(4-chlorobenzyl)-6-({[3-(cyclohexylamino)propyl]amino}sulfonyl)-8-fluoro-4-hydroxy-3-quinolinecarboxamide]",≥ 50 µM
10,"O=C(NCc1ccc(Cl)cc1)c1cnc2c(F)cc(S(=O)(=O)NCc3cccc4ccccc34)cc2c1O [Example 206, N-(4-chlorobenzyl)-8-fluoro-4-hydroxy-6-{[(1-naphthylmethyl)amino]sulfonyl}-3-quinolinecarboxamide]",2.4 µM
11,"O=C(NCc1ccc(Cl)cc1)c1cnc2c(F)cc(S(=O)(=O)NCCc3c[nH]cn3)cc2c1O [Example 207, N-(4-chlorobenzyl)-8-fluoro-4-hydroxy-6-({[2-(1H-imidazol-4-yl)ethyl]amino}sulfonyl)-3-quinolinecarboxamide]",14.4 µM
12,"O=C(NCc1ccc(Cl)cc1)c1cnc2c(F)cc(S(=O)(=O)NCC3CCCO3)cc2c1O (stereo not drawn) [Example 208, N-(4-chlorobenzyl)-8-fluoro-4-hydroxy-6-{[(tetrahydro-2-furanylmethyl)amino]sulfonyl}-3-quinolinecarboxamide]",41.6 µM
13,"O=C(NCc1ccc(Cl)cc1)c1cnc2c(F)cc(S(=O)(=O)NCc3cccs3)cc2c1O [Example 209, N-(4-chlorobenzyl)-8-fluoro-4-hydroxy-6-{[(2-thienylmethyl)amino]sulfonyl}-3-quinolinecarboxamide]",8.6 µM
14,"O=C(NCc1ccc(Cl)cc1)c1cnc2c(F)cc(S(=O)(=O)NCCc3c[nH]c4ccccc34)cc2c1O [Example 210, N-(4-chlorobenzyl)-8-fluoro-4-hydroxy-6-({[2-(1H-indol-3-yl)ethyl]amino}sulfonyl)-3-quinolinecarboxamide]",4.8 µM
15,"COc1ccc2[nH]cc(CCNS(=O)(=O)c3cc(F)c4ncc(C(=O)NCc5ccc(Cl)cc5)c(O)c4c3)c2c1 [Example 211, N-(4-chlorobenzyl)-8-fluoro-4-hydroxy-6-({[2-(5-methoxy-1H-indol-3-yl)ethyl]amino}sulfonyl)-3-quinolinecarboxamide]",5.1 µM
16,"O=C(NCc1ccc(Cl)cc1)c1cnc2c(F)cc(S(=O)(=O)NCc3ccc4c(c3)OCO4)cc2c1O [Example 212, 6-{[(1,3-benzodioxol-5-ylmethyl)amino]sulfonyl}-N-(4-chlorobenzyl)-8-fluoro-4-hydroxy-3-quinolinecarboxamide]",14.5 µM
17,"O=C(NCc1ccc(Cl)cc1)c1cnc2c(F)cc(S(=O)(=O)NCCN3CCOCC3)cc2c1O [Example 213, N-(4-chlorobenzyl)-8-fluoro-4-hydroxy-6-{[(2-morpholinoethyl)amino]sulfonyl}-3-quinolinecarboxamide]",18.9 µM

row,SMILES,IC50
1,"O=C(NCc1ccc(Cl)cc1)c1cnc2c(F)cc(S(=O)(=O)NCCCN3CCOCC3)cc2c1O [Example 214, N-(4-chlorobenzyl)-8-fluoro-4-hydroxy-6-{[(3-morpholinopropyl)amino]sulfonyl}-3-quinolinecarboxamide]",29.7 µM
2,"O=C(NCc1ccc(Cl)cc1)c1cnc2c(F)cc(S(=O)(=O)NCCNc3ccc([N+](=O)[O-])cn3)cc2c1O [Example 215, N-(4-chlorobenzyl)-8-fluoro-4-hydroxy-6-[({2-[(5-nitro-2-pyridinyl)amino]ethyl}amino)sulfonyl]-3-quinolinecarboxamide]",8.6 µM
3,"O=C(NCc1ccc(Cl)cc1)c1cnc2c(F)cc(S(=O)(=O)NCc3ccccn3)cc2c1O [Example 216, N-(4-chlorobenzyl)-8-fluoro-4-hydroxy-6-{[(2-pyridinylmethyl)amino]sulfonyl}-3-quinolinecarboxamide]",18.7 µM
4,"O=C(NCc1ccc(Cl)cc1)c1cnc2c(F)cc(S(=O)(=O)NCCc3ccccn3)cc2c1O [Example 217, N-(4-chlorobenzyl)-8-fluoro-4-hydroxy-6-({[2-(2-pyridinyl)ethyl]amino}sulfonyl)-3-quinolinecarboxamide]",15.2 µM
5,"O=C(NCc1ccc(Cl)cc1)c1cnc2c(F)cc(S(=O)(=O)NCc3cccnc3)cc2c1O [Example 218, N-(4-chlorobenzyl)-8-fluoro-4-hydroxy-6-{[(3-pyridinylmethyl)amino]sulfonyl}-3-quinolinecarboxamide]",17.6 µM
6,"O=C(NCc1ccc(Cl)cc1)c1cnc2c(F)cc(S(=O)(=O)NCc3ccncc3)cc2c1O [Example 219, N-(4-chlorobenzyl)-8-fluoro-4-hydroxy-6-{[(4-pyridinylmethyl)amino]sulfonyl}-3-quinolinecarboxamide]",11 µM
7,"O=C(NCc1ccc(Cl)cc1)c1cnc2c(F)cc(S(=O)(=O)NCc3ccc(Cl)cc3)cc2c1O [Example 220, N-(4-chlorobenzyl)-6-{[(4-chlorobenzyl)amino]sulfonyl}-8-fluoro-4-hydroxy-3-quinolinecarboxamide]",10.7 µM
8,"COc1ccc(CNS(=O)(=O)c2cc(F)c3ncc(C(=O)NCc4ccc(Cl)cc4)c(O)c3c2)cc1 [Example 221, N-(4-chlorobenzyl)-8-fluoro-4-hydroxy-6-{[(4-methoxybenzyl)amino]sulfonyl}-3-quinolinecarboxamide]",12.5 µM
9,"CC(C)(C)CNS(=O)(=O)c1cc(F)c2ncc(C(=O)NCc3ccc(Cl)cc3)c(O)c2c1 [Example 222, N-(4-chlorobenzyl)-8-fluoro-4-hydroxy-6-[(neopentylamino)sulfonyl]-3-quinolinecarboxamide]",11.5 µM
10,"CC(O)CNS(=O)(=O)c1cc(F)c2ncc(C(=O)NCc3ccc(Cl)cc3)c(O)c2c1 (stereo not drawn) [Example 223, N-(4-chlorobenzyl)-8-fluoro-4-hydroxy-6-{[(2-hydroxypropyl)amino]sulfonyl}-3-quinolinecarboxamide]",14.5 µM
11,"O=C(NCc1ccc(Cl)cc1)c1cnc2c(F)cc(S(=O)(=O)NCC(O)CO)cc2c1O (stereo not drawn) [Example 224, N-(4-chlorobenzyl)-6-{[(2,3-dihydroxypropyl)amino]sulfonyl}-8-fluoro-4-hydroxy-3-quinolinecarboxamide]",21.6 µM
12,"O=C(NCc1ccc(Cl)cc1)c1cnc2c(F)cc(S(=O)(=O)NCC(c3ccccc3)c3ccccc3)cc2c1O [Example 225, N-(4-chlorobenzyl)-6-{[(2,2-diphenylethyl)amino]sulfonyl}-8-fluoro-4-hydroxy-3-quinolinecarboxamide]",8.5 µM
13,"O=C(O)CCCCCCCCCCNS(=O)(=O)c1cc(F)c2ncc(C(=O)NCc3ccc(Cl)cc3)c(O)c2c1 [Example 226, 11-{[(3-{[(4-chlorobenzyl)amino]carbonyl}-8-fluoro-4-hydroxy-6-quinolinyl)sulfonyl]amino}undecanoic acid]",18.5 µM
14,"CC(=O)NCCNS(=O)(=O)c1cc(F)c2ncc(C(=O)NCc3ccc(Cl)cc3)c(O)c2c1 [Example 227, 6-({[2-(acetylamino)ethyl]amino}sulfonyl)-N-(4-chlorobenzyl)-8-fluoro-4-hydroxy-3-quinolinecarboxamide]",26.7 µM
15,"O=C(NCc1ccc(Cl)cc1)c1cnc2c(F)cc(S(=O)(=O)NCCOCCO)cc2c1O [Example 228, N-(4-chlorobenzyl)-8-fluoro-4-hydroxy-6-({[2-(2-hydroxyethoxy)ethyl]amino}sulfonyl)-3-quinolinecarboxamide]",44.3 µM
16,"O=C(NCc1ccc(Cl)cc1)c1cnc2c(F)cc(S(=O)(=O)NCCO)cc2c1O [Example 229, N-(4-chlorobenzyl)-8-fluoro-4-hydroxy-6-{[(2-hydroxyethyl)amino]sulfonyl}-3-quinolinecarboxamide]",10.7 µM
